According to PubChem BioAssay (NCI):
“And” between values parts separate entries of the source, which are not always exact repeats. Identical values can stand only once.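 Dose response: 5 concentrations. Exposure: 48 h. Format: 96-well plates. Endpoint: linear interpolation; highest concentration if not reached. GI50 is the concentration that inhibits growth by half. TGI: concentration producing complete growth inhibition.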

What was measured:
Assay in all cases: NCI tumour cell line growth inhibition, 48 h
HCT-116 colon = system: HCT-116 colon
HOP-62 NSCLC = system: HOP-62 NSCLC
M14 melanoma = system: M14 melanoma
OVCAR-4 ovarian = system: OVCAR-4 ovarian
PC-3 prostate = system: PC-3 prostate
SF-295 CNS = system: SF-295 CNS
SN12C renal = system: SN12C renal
SNB-75 CNS = system: SNB-75 CNS
SW-620 colon = system: SW-620 colon
UO-31 renal = system: UO-31 renal

Compound	TGI (HCT-116 colon)	TGI (HOP-62 NSCLC)	TGI (M14 melanoma)	TGI (OVCAR-4 ovarian) [µM]	TGI (PC-3 prostate) [µM]	TGI (SF-295 CNS)	TGI (SN12C renal)	TGI (SNB-75 CNS)	TGI (SW-620 colon)	TGI (UO-31 renal)	GI50 (HOP-62 NSCLC) [µM]	GI50 (M14 melanoma) [µM]	GI50 (OVCAR-4 ovarian) [µM]	GI50 (PC-3 prostate) [µM]	GI50 (SN12C renal) [µM]	GI50 (SNB-75 CNS) [µM]	GI50 (SW-620 colon) [µM]	GI50 (UO-31 renal) [µM]
COc1cccc(-c2cc(=O)c3cc(Cl)cnc3[nH]2)c1	10.6 µM	9.84 µM	> 9.71 µM	76.3	> 100	13 µM	> 100 µM	> 100 µM	> 100 µM	> 62 µM								
CC1(C)CC[C@]2(C(=O)O)[C@H](O)C[C@]3(C)C(=CC[C@@H]4[C@@]5(C)CC[C@H](OC6OC(C(=O)O)C(O)C(O)C6O)C(C)(C)[C@@H]5CC[C@]43C)[C@@H]2C1 (some centres undefined)	> 100 µM	> 100 µM	> 100 µM	58.4	> 100	> 100 µM	94.9 µM	> 100 µM	> 100 µM	32 µM								
C=CCN1CCC2(CC1)NC(=O)c1ccccc1O2	> 100 µM	> 100 µM	> 100 µM	> 100	> 100	> 100 µM	> 100 µM	> 100 µM	> 100 µM	> 100 µM								
C=CC1(c2ccc(OC)cc2)OCCCO1	> 100 µM	> 100 µM	> 100 µM	> 100	> 100	> 100 µM	> 100 µM	> 100 µM	> 100 µM	> 100 µM								
C[N+](C)(N)c1nc(N)c(C#N)c(C#N)c1C#N	> 10 µM	> 10 µM	> 10 µM	> 10	> 10	> 10 µM	> 10 µM	> 10 µM	> 10 µM	> 10 µM								
CC(=O)C1(O)Cc2c(O)c3c(c(O)c2C(OC2CC(N)C(O)C(C)O2)C1)C(=O)c1ccccc1C3=O (centres undefined)	0.62 µM and 0.174 µM	0.275 µM and 0.118 µM	0.605 µM and 0.158 µM	0.996	0.741	0.388 µM and 0.0514 µM	0.115 µM and 0.163 µM	0.594 µM and 0.103 µM	0.597 µM and 0.262 µM	0.204 µM and < 0.0304 µM	< 0.0126	0.0145	0.0663	0.0437	< 0.0117	0.0293	< 0.0114	< 0.0127
CN(C)CCn1nc(N)c2nc3cc(C(F)(F)F)ccc3nc21	> 100 µM	> 100 µM	> 100 µM	> 100	> 100	> 100 µM	> 100 µM	72 µM	> 100 µM	> 100 µM								
COc1ccccc1NCC(=O)Nn1c(C)nc2ccc(S(=O)(=O)Nc3ccccc3OC)cc2c1=O	> 100 µM	> 100 µM	> 100 µM	> 100	> 100	> 100 µM	> 100 µM	> 100 µM	> 100 µM	> 100 µM								
COC(=O)[C@H](CCSC)NC(=O)c1ccc(CNC(=O)/C(C)=C/c2ccccc2)cc1	> 100 µM	52.3 µM	83.7 µM	> 100	> 100	> 100 µM	> 100 µM	28.4 µM	> 100 µM	> 100 µM								
CC(/C=N/NC1=NCCCN1)=N\NC1=NCCCN1	> 100 µM	> 100 µM	> 100 µM	> 100	> 100	> 100 µM	> 100 µM	> 100 µM	> 100 µM	> 100 µM								
O=C(NN=C1CCCCC1)NN=C1CCCCC1	> 100 µM	> 100 µM	> 100 µM	> 100	> 100	> 100 µM	> 100 µM	> 100 µM	> 100 µM	> 100 µM								
CC1=CC(=O)/C(=C/n2c(=S)[nH]c3ccccc32)C(=O)O1	> 100 µM	> 100 µM	> 100 µM	> 100	> 100	> 100 µM	> 100 µM	> 100 µM	> 100 µM	> 100 µM								
COc1ccc2c(c1)-c1[nH]c3ccccc3c1CC2	31.8 µM	30.8 µM	31.5 µM	32.4	29.6	27.3 µM	29.9 µM	28.9 µM	31.6 µM	29.5 µM								
O=C1OC(=O)C2C1C(c1ccccc1[N+](=O)[O-])C=C(c1ccco1)N2c1ccncc1 (centres undefined)	3.31 µM	38.2 µM	> 50.5 µM	29.8	28.1	24.5 µM	25 µM	35.2 µM	15 µM	15.3 µM								
COc1ccccc1NS(=O)(=O)c1ccc2ncn(NS(=O)(=O)c3ccc(Cl)cc3)c(=O)c2c1	> 100 µM	> 100 µM	> 100 µM	> 100	> 100	> 100 µM	> 100 µM	> 100 µM	> 100 µM	> 100 µM								
O=[N+]([O-])c1ccc2ncccc2c1CCc1c([N+](=O)[O-])ccc2ncccc12	> 100 µM	> 100 µM	> 100 µM	> 100	> 100	> 100 µM	> 100 µM	> 100 µM	> 100 µM	> 100 µM								
CCOC(=O)CC[C@H](N)C(=O)N[C@H](Cc1ccc(N(CCCl)CCCl)cc1)C(=O)OCC	> 36.2 µM	13.6 µM	12.9 µM	11.2	17.7	23 µM	16.7 µM	5.89 µM	14.1 µM	0.281 µM								0.135
